From ChEMBL document CHEMBL3507680, “University of Dundee, Gates Library screen for HepG2 cell viability”

Experiment: Human HepG2 cell viability assay in 384 well format
Assay type: toxicity, cell-based
Design: dose 125 nL, time 70.5 hour; concentration not given beside the values
Details: HepG2 cells, read-out: Inhibition

Row | SMILES | cytotoxicity at 70.5 h
1 | COc1cccc(CN2C[C@@H]3COC[C@]3(COc3cccnc3)C2)c1 | 3.66%
2 | CCCc1nc(C(=O)NCCN2CCC(c3ccccc3C)C2)cs1 (stereo not drawn) | 0.739%
3 | CN1CCN(C(=O)[C@@H]2CN(C)C[C@]23COc2ccc(F)cc2C3=O)CC1 | 28.4%
4 | Cc1nc(-c2ccccc2)c(C(=O)N2CCC3(CC(=O)NC3=O)C2)s1 (stereo not drawn) | -6.69%
5 | O=C(CC(F)(F)F)NCC(O)c1ccc2ccccc2c1 (stereo not drawn) | -3.75%
6 | COc1cccc(OCC2CCCN(C(=O)c3ncoc3C3CC3)C2)c1 (stereo not drawn) | -11.7%
7 | COCCC1(CO)CCCN(C(=O)c2cccnc2OC)C1 (stereo not drawn) | -5.91%
8 | CCNC(=O)N1CCc2ccc(NC(=O)C(C)c3ccsc3)cc21 (stereo not drawn) | -11.3%
9 | COCCN1CCc2cc(C(=O)NC(C)C)c(NCC3CC3)nc2CC1 | -0.245%
10 | O=C(N[C@H]1CN(Cc2cccs2)[C@@H]2CCCO[C@H]12)c1cccnc1 | -18.4%
11 | CC(=O)N1CCCN(Cc2csc(-c3ncccn3)n2)CC1 | -7.01%
12 | Cc1c(NC(=O)N(C)CCCc2cnn(C)c2)cnn1C | -12.2%
13 | CCCN1CCc2nc(SCc3ccccc3F)[nH]c(=O)c2C1 | 6.37%
14 | CN(CC(=O)NCCc1ccccn1)C(=O)c1cccs1 | -19.9%
15 | COCC(=O)N1CCCC(c2noc3nc(C)cc(C(F)(F)F)c23)C1 (stereo not drawn) | 12.8%
16 | COc1cccc(C(=O)N2CCc3ncnc(C)c3CC2)c1 | -5.4%
17 | O=C(NCCc1nc(-c2cccnc2)no1)c1ccc(C2CCCO2)s1 (stereo not drawn) | 6.34%
18 | COC(=O)N1CCC(NC(=O)Cn2cc(C)c3ccccc32)CC1 | -7.09%
19 | CC(C)c1cc(NC(=O)c2ccncc2)[nH]n1 | 2.62%
20 | Cc1nc(CCNC(=O)C2CCN(C(C)C)CC2)sc1Cl | -0.288%
21 | Cc1ccccc1C1(C(=O)NCCN(C)C)CCOCC1 | -3.78%
22 | COc1ccc(C2(NC(=O)CCn3cncn3)CCCCC2)cc1 | -6.29%
23 | O=C(N[C@@H]1CCCNC1)C1(Oc2ccc(Cl)cc2)CCNCC1 | 13.1%

Row | SMILES | cytotoxicity at 70.5 h
24 | CCCc1noc(C(C)N2CCN(c3ccc(C#N)cn3)CC2)n1 (stereo not drawn) | -10.8%
25 | CCOC(=O)CC1CCCCN1C(=O)c1cc(C)on1 (stereo not drawn) | -8.65%
26 | Cc1cc(C2CCC2)nc(N2CCC3(CC2)OCCCC3O)n1 (stereo not drawn) | -8.75%
27 | COCCN(C)C(C(=O)O)c1ccc(F)c(Cl)c1 (stereo not drawn) | 30.8%
28 | CCCC(=O)NC(Cc1ccc(C)cc1)c1ccccn1 (stereo not drawn) | 2.81%
29 | Cc1nn(C)cc1-c1ccnc(NCCN)n1 | -8.28%
30 | Fc1cccc(-c2nc(CN3CCCC3Cn3cncn3)co2)c1 (stereo not drawn) | 8.65%
31 | Cc1ccccc1CSc1nc(N)cc(N2C[C@H](O)[C@@H](N(C)C)C2)n1 | -2.01%
32 | Cc1ccc(C2COCCN2C(=O)c2cccc(N(C)C)c2)o1 (stereo not drawn) | -7.51%
33 | Cc1csc(CCCNc2ccc(S(N)(=O)=O)cc2C#N)n1 | -22.6%
34 | NC(=O)COc1cccc(Cn2cc(Br)cn2)c1 | -1.2%
35 | Cn1ccnc1CN1CCC2(CC1)CC(NC(=O)c1ccccn1)CO2 (stereo not drawn) | 8.41%
36 | Cc1ccnc(OC[C@@]23CCO[C@@H]2CCN(S(C)(=O)=O)C3)n1 | -7.11%
37 | Cc1cc(NC(=O)CN(C)C2CCCN(c3cccnn3)C2)on1 (stereo not drawn) | 23.1%
38 | O=C(CNC(=O)C1CCCC1)NCc1cnn(-c2ccc(F)cc2F)c1 | -1.74%
39 | c1ccc(CCN2CCn3cc(Cn4cccn4)nc3C2)cc1 | -10.6%
40 | Cc1cc(CNC(=O)C2CCCN2C(=O)OC(C)(C)C)no1 (stereo not drawn) | -0.379%
41 | CN(C)CC(=O)N1CCCC1c1cncc(Oc2ccc(F)cc2)n1 (stereo not drawn) | 11.5%
42 | CC(Cc1cccs1)NC(=O)CCn1cccn1 (stereo not drawn) | -0.682%
43 | Cc1n[nH]c(C)c1Sc1ccccc1NC(=O)N1CCN(C)CC1 | 50.2%
44 | N#Cc1ccc(CNC(=O)NC2CCCN(c3ncccn3)C2)cc1 (stereo not drawn) | -9.27%
45 | COc1ccc(CN(C)[C@@H]2CN(S(=O)(=O)C(C)C)C[C@H]2O)cc1 | -2.64%
46 | CCN1CCN(C(=O)c2c[nH]c(C(C)C)n2)c2ccccc21 | 2.09%

Row | SMILES | cytotoxicity at 70.5 h
47 | CC(=O)NC[C@]1(O)CCN(C(=O)c2ccc(C)c(F)c2)C[C@H]1O | -2.74%
48 | COc1ccc([C@@H]2CN(Cc3cccnc3N)C[C@H]2N(C)C)cc1 | -2.88%
49 | CCN(CC1CCOC1)C(=O)c1nc(-c2ccco2)sc1C (stereo not drawn) | -2.01%
50 | COCc1ccc(C(=O)N2CCN(CC3CC3)[C@@H]3CS(=O)(=O)C[C@@H]32)o1 | -1.28%
51 | CCC(CC)(CNC(=O)OC(C)(C)C)NC(=O)c1cnccn1 | 0.78%
52 | CN(C)c1nc2c(c(NCc3nnc4n3CCCCC4)n1)CCNC2 | -6.97%
53 | Cc1ncsc1CN1C[C@@H](O)[C@](O)(CNC(=O)c2ccccn2)C1 | -10.6%
54 | O=C(CCc1cccs1)Nc1ccnn1C1CCS(=O)(=O)C1 (stereo not drawn) | -1.32%
55 | C[C@@H]1CN(CCOCc2ccccc2)CC[C@@]1(O)C1CCC1 | 37.7%
56 | Cn1ccc2c(C(=O)N3CCN(C(=O)C4CCCC4)CC3)cccc21 | -5.41%
57 | CCn1cc(-c2cc(C(F)(F)F)n(CCCN)n2)cn1 | 1.14%
58 | COCCCNC(=O)c1cc(-c2ccc(OC)cc2)nn1C | 4.27%
59 | CCNC(=O)NC(=O)CNc1cc(C#N)ccc1OCC | -3.61%
60 | COc1cc(C(C)=O)ccc1OCC(=O)c1cccn1C | 32.2%
61 | Cc1[nH]nc2ncc(C(=O)N3CCN(CC(O)C(C)(C)C)CC3)cc12 (stereo not drawn) | -1.93%
62 | Cc1nc(CN2CCOCC3(CCN(c4cnccn4)CC3)C2)cs1 | -82.2%
63 | COC[C@@H]1CCC[C@]12CN(S(=O)(=O)c1cn(C)cn1)CCO2 | -6.65%
64 | CN1CCc2nc(C3CCCCN3Cc3ccccc3Cl)ncc2C1 (stereo not drawn) | -4.18%
65 | Cc1nc(NC(=O)C(C)N(C)Cc2cccc(C#N)c2)sc1C (stereo not drawn) | 15.8%
66 | Cc1nc(CN2C[C@@H]3CCCO[C@@H]3[C@H](NC(=O)CC3CC3)C2)cs1 | -0.515%
67 | Cc1ccc(S(=O)(=O)N2CC[C@@H]3C[C@H](NC(=O)c4ccncc4)[C@@H]32)cc1 | -2.83%
68 | COc1cccc(N2CCN(CC(O)c3cc(C)sc3C)CC2)c1 (stereo not drawn) | -2.76%
69 | COCCN1CCC(CNC(=O)c2cc(Cl)c[nH]2)CC1 | -11.1%

Row | SMILES | cytotoxicity at 70.5 h
70 | COc1cc(CCC(=O)NC2CC2)ccc1OCC(F)(F)F | -15.3%
71 | COc1ccnc(N(C)Cc2csc(C)n2)n1 | -6.22%
72 | O=C(Nc1cccnc1)[C@H]1C[C@@H]2CCN(c3nncs3)C[C@H]2O1 | -1.35%
73 | CNC(=O)NC(=O)CCN1CCN(c2ccc(C(=O)OC)cc2)CC1C (stereo not drawn) | -9.55%
74 | Cc1nsc(NC2CCOC3(CCCCC3)C2)n1 (stereo not drawn) | -8.47%
75 | Cc1cc(CN2CCC3(CC2)CC(Nc2ncccn2)CO3)nn1C (stereo not drawn) | -35.4%
76 | COc1ccccc1NC(=O)C1(c2ccccc2)CCOCC1 | -6.73%
77 | CCNCCOc1ccc(-c2cc(N)nc3[nH]ccc23)cc1 | -10.1%
78 | CCN(CC)Cc1ccccc1NC(=O)N(C)Cc1ccccc1O | -6.5%
79 | Cn1ccc2cc(CC3COCCN(C(=O)c4cccnc4)C3)ccc21 (stereo not drawn) | 11.9%
80 | COCCc1noc(CN(C)C(=O)C2COc3ccccc3C2)n1 (stereo not drawn) | -5.1%
81 | Cc1n[nH]c(C)c1NC(=O)Nc1cccnc1N1CCCC1 | 12.8%
82 | Cc1cc(NCC2(O)CCOCC2)nc2ccccc12 | -8.29%
83 | Cc1nc(C(=O)N(C)CC(F)(F)C(F)(F)F)c2ccccn12 | -13.5%
84 | O=C(c1ccsc1)N1C[C@@H]2CCN(c3cccnc3)C[C@@H]2C1 | -6.89%
85 | Cc1ccc(CNCCC(O)(c2nccn2C)C(F)(F)F)o1 (stereo not drawn) | -6.24%
86 | COc1cc(OC)cc(N2CCC(NCc3cc[nH]n3)C2)c1 (stereo not drawn) | 40.6%
87 | COCCSc1ccc(-n2cccn2)nn1 | 12.3%
88 | CC(C)Oc1ccccc1CNC(=O)N(C)CC(F)F | -3.01%
89 | CN(C)CCN1CC(C(=O)NCc2ccc(C#N)cc2)CC1=O (stereo not drawn) | -1.01%
90 | Cc1ccc(C(C)NC(=O)CSCC(N)=O)cc1 (stereo not drawn) | -0.981%
91 | CC(=O)Nc1cc(-c2cccc(F)c2F)n[nH]1 | -5.76%
92 | O=C(NCC1(O)CCSC1)c1ccoc1 (stereo not drawn) | -5.15%

Row | SMILES | cytotoxicity at 70.5 h
93 | Cc1cccc(C(=O)N2C[C@@H](OCc3cccnc3)[C@H]3OCCC[C@@H]32)n1 | -1.75%
94 | CCC(=O)N1CCN(C(=O)NCCOc2ccc3c(c2)CCC3)CC1 | -8.5%
95 | CCOCC1CN(S(=O)(=O)CC)Cc2nn(C)cc21 (stereo not drawn) | -8.48%
96 | CC(C)(C)S(=O)(=O)CCNC(=O)c1ccc2cc[nH]c2c1 | -0.00861%
97 | Clc1ccc(N2CCN(CCCN3CCCCC3)CC2)nc1 | 7.35%
98 | O=C(c1cscn1)N1CCC[C@]2(C[C@H](OCC3CC3)CO2)C1 | -5.48%
99 | Cn1ccnc1CN1C[C@@H]2OCCN(c3ncccn3)[C@@H]2C1 | -16.1%
100 | O=C(Nc1ccc(CC(=O)N2CCCC2)cc1)NC1CC1 | -7.44%
101 | O=C(O)c1ccc(=O)n(CC(c2ccc(Cl)cc2)N2CCCCCC2)c1 (stereo not drawn) | -8.13%
102 | Cc1nc(CN(C)C2CCN(CCCOc3ccc(F)cc3)C2)no1 (stereo not drawn) | 22.2%
103 | COCc1nc(C(=O)N2CCCC2c2ccccc2C)cs1 (stereo not drawn) | -1.48%
104 | Cn1ccc2c(-c3cc(N)nc(N4CCOCC4)n3)ccnc21 | 1.46%
105 | Cc1cnn(CCNCC(O)COc2ccc(Cl)cc2Cl)c1 (stereo not drawn) | -2.81%
106 | Cc1cnc(C(=O)N2CCN3C[C@H](OCc4cccnc4)C[C@H]3C2)cn1 | -9.39%
107 | O=C(NCC1CCOC1)N1CCN(c2ncccn2)CC1 (stereo not drawn) | 0.214%
108 | CSCc1ccc(CNC2CCCN(c3ccc(C)nn3)C2)o1 (stereo not drawn) | -9.42%
109 | COCC1CN(C(=O)c2cccn2C)Cc2ncnn2C1 (stereo not drawn) | -3.03%
110 | Cc1nccn1-c1ccc(NS(=O)(=O)c2cnn(C)c2)cn1 | -4.84%
111 | O=C(c1cc[nH]n1)N1CCCC1C1CCN(Cc2ccccc2)CC1 (stereo not drawn) | -3.3%
112 | CCN(C(=O)COc1nc(C(C)(C)C)no1)C1CC1 | -2.91%
113 | CCc1c(C)nc2n(c1=O)CC(C(=O)Nc1ncccc1C)CS2 (stereo not drawn) | -8.04%
